Experiments:
Type in all cases: functional
[1] = Induction of TFEB nuclear translocation in human HeLa cells expressing EGFP at 30 uM measured at 6 hrs by fluorescence microscopic analysis
[2] = Induction of TFEB nuclear translocation in human HeLa cells expressing EGFP at 30 uM measured at 3 hrs by fluorescence microscopic analysis
[3] = Induction of TFEB nuclear translocation in human HeLa cells expressing EGFP at 10 uM measured at 3 hrs by fluorescence microscopic analysis
[4] = Induction of TFEB nuclear translocation in human HeLa cells expressing EGFP at 10 uM measured at 6 hrs by fluorescence microscopic analysis

| Compound | Activity [1] | Activity [2] | Activity [3] | Activity [4] |
| --- | --- | --- | --- | --- |
| COc1ccc2[nH]cc(CCC3c4cc5c(cc4CCN3CC3CCOCC3)OCO5)c2c1 (configuration not stated) | 98% | 88% | 74% | 76% |
| CC(C)CN1CCc2cc3c(cc2C1CCc1c[nH]c2ccccc12)OCO3 (configuration not stated) | 82% | 74% | 20% | 20% |
| COc1ccc2[nH]cc(CC[C@@H]3c4cc(OC)c(OC)cc4CCN3CC3CCOCC3)c2c1 | 80% | 74% | 23% | 37% |
| O=CN1CCc2cc3c(cc2C1CCc1c[nH]c2ccccc12)OCO3 (configuration not stated) | 4% | 6% | 6% | 5% |
| c1ccc2c(CC[C@@H]3NCCc4cc5c(cc43)OCO5)c[nH]c2c1 | 96% | 89% | 30% | 34% |
| c1ccc(COc2ccc3[nH]cc(CCC4c5cc6c(cc5CCN4CC4CCOCC4)OCO6)c3c2)cc1 (configuration not stated) | 88% | 75% | 12% | 30% |
| COc1cc2c(cc1OC)C(CCc1c[nH]c3ccc(Cl)cc13)N(CC1CCOCC1)CC2 (configuration not stated) | 90% | 84% | 27% | 37% |
| CC(C)CCN1CCc2cc3c(cc2C1CCc1c[nH]c2ccccc12)OCO3 (configuration not stated) | 80% | 70% | 20% | 20% |
| Fc1ccc2[nH]cc(CC[C@H]3c4cc5c(cc4CCN3CC3CCOCC3)OCO5)c2c1 | 98% | 90% | 56% | 60% |
| Cc1ccc2[nH]cc(CCC3c4cc5c(cc4CCN3CC3CCOCC3)OCO5)c2c1 (configuration not stated) | 85% | 83% | 20% | 30% |
| c1ccc2c(CCC3c4cc5c(cc4CCN3Cc3ccncc3)OCO5)c[nH]c2c1 (configuration not stated) | 90% | 80% | 45% | 50% |
| COc1cc2c(cc1F)C(CCc1c[nH]c3ccccc13)N(CC1CCOCC1)CC2 (configuration not stated) | 79% | 70% | 17% | 31% |
| Fc1ccc2[nH]cc(CCC3NCCc4cc5c(cc43)OCO5)c2c1 (configuration not stated) | 92% | 88% | 36% | 54% |
| COc1cc2c(cc1OC)C(CCc1c[nH]c3ccc(C)cc13)N(CC1CCOCC1)CC2 (configuration not stated) | 91% | 92% | 38% | 53% |
| CCC(=O)N1CCN(c2ccc(-n3c(=O)ccc4cnc5ccc(-c6cnc7ccccc7c6)cc5c43)cc2C(F)(F)F)CC1 [TORIN1] | 100% | 100% | 100% | 100% |
| c1ccc2c(CC[C@H]3NCCc4cc5c(cc43)OCO5)c[nH]c2c1 | 77% | 76% | 18% | 23% |
| COc1cc2c(cc1OC)C(CCc1c[nH]c3ccc(F)cc13)N(CC1CCOCC1)CC2 (configuration not stated) | 95% | 88% | 22% | 47% |
| CCOc1cc2c(cc1OC)CCN(CC1CCOCC1)C2CCc1c[nH]c2ccccc12 (configuration not stated) | 82% | 75% | 17% | 28% |
| c1ccc2c(CCC3c4cc5c(cc4CCN3CCC3CCOCC3)OCO5)c[nH]c2c1 (configuration not stated) | 80% | 65% | 5% | 5% |

| Compound | Activity [1] | Activity [2] | Activity [3] | Activity [4] |
| --- | --- | --- | --- | --- |
| c1cnc2[nH]cc(CCC3c4cc5c(cc4CCN3CC3CCOCC3)OCO5)c2c1 (configuration not stated) | 64% | 64% | 10% | 10% |
| CC(=O)N1CCc2cc3c(cc2C1CCc1c[nH]c2ccccc12)OCO3 (configuration not stated) | 10% | 8% | 6% | 7% |
| COc1cc2c(cc1OC)C(CCc1c[nH]c3ccc(Br)cc13)N(CC1CCOCC1)CC2 (configuration not stated) | 94% | 89% | 53% | 63% |
| c1ccc(CN2CCc3cc4c(cc3C2CCc2c[nH]c3ccccc23)OCO4)cc1 (configuration not stated) | 10% | 10% | 10% | 10% |
| Brc1ccc2[nH]cc(CCC3c4cc5c(cc4CCN3CC3CCOCC3)OCO5)c2c1 (configuration not stated) | 95% | 85% | 10% | 30% |
| Cn1cc(CCC2c3cc4c(cc3CCN2CC2CCOCC2)OCO4)c2ccccc21 (configuration not stated) | 26% | 26% | 5% | 5% |
| OCn1cc(CCC2c3cc4c(cc3CCN2CC2CCOCC2)OCO4)c2ccccc21 (configuration not stated) | 8% | 8% | 5% | 5% |
| Clc1ccc2[nH]cc(CCC3c4cc5c(cc4CCN3CC3CCOCC3)OCO5)c2c1 (configuration not stated) | 92% | 83% | 15% | 20% |
| c1ccc2c(CCC3c4cc5c(cc4CCN3Cc3cncnc3)OCO5)c[nH]c2c1 (configuration not stated) | 20% | 20% | 10% | 10% |
| Oc1ccc2[nH]cc(CCC3c4cc5c(cc4CCN3CC3CCOCC3)OCO5)c2c1 (configuration not stated) | 81% | 72% | 15% | 21% |
| Cc1ccc2[nH]cc(CCC3NCCc4cc5c(cc43)OCO5)c2c1 (configuration not stated) | 60% | 45% | 10% | 10% |
| CCN1CCc2cc3c(cc2C1CCc1c[nH]c2ccccc12)OCO3 (configuration not stated) | 84% | 65% | 9% | 22% |
| NC(=O)CN1CCc2cc3c(cc2C1CCc1c[nH]c2ccccc12)OCO3 (configuration not stated) | 20% | 20% | 5% | 5% |
| COc1cc2c(cc1C)C(CCc1c[nH]c3ccccc13)N(CC1CCOCC1)CC2 (configuration not stated) | 81% | 76% | 18% | 30% |
| CCCN1CCc2cc3c(cc2C1CCc1c[nH]c2ccccc12)OCO3 (configuration not stated) | 80% | 55% | 11% | 12% |
| COCCN1CCc2cc3c(cc2C1CCc1c[nH]c2ccccc12)OCO3 (configuration not stated) | 80% | 70% | 30% | 30% |
| c1ccc2c(CCC3c4cc5c(cc4CCN3CC3CCCCC3)OCO5)c[nH]c2c1 (configuration not stated) | 42% | 11% | 7% | 8% |
| Fc1ccc2[nH]cc(CC[C@@H]3c4cc5c(cc4CCN3CC3CCOCC3)OCO5)c2c1 | 82% | 70% | 29% | 33% |
| COc1ccc2[nH]cc(CC[C@H]3c4cc(OC)c(OC)cc4CCN3CC3CCOCC3)c2c1 | 91% | 85% | 44% | 61% |

From ChEMBL document CHEMBL5506074, “Discovery and Optimization of Tetrahydroisoquinoline Derivatives To Enhance Lysosome Biogenesis as Preclinical Candidates for the Treatment of Alzheimer's Disease” (J Med Chem, 2024)
